Test results reported in ChEMBL document CHEMBL1201862, “PubChem BioAssay data set” (2004).
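Assay format: 96-well plates, 48-hour exposure. The concentration for 50% growth inhibition is given as GI50.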 Activity calls are given as the source filed them. Cut-off read from the data, not from the text of the source: active = GI50 up to about 1.1 µM and inactive = higher. Non-standard residues stand in square brackets, D forms with d. Residues, ends and D or L forms follow the SMILES beside them.

Columns and labels:
Test in all cases: inhibition of tumour cell growth, NCI panel, 48 h
RXF 631 = test system: RXF 631
XF498 = test system: XF498
SNB-78 = test system: SNB-78
DMS-114 = test system: DMS-114
HOP-18 = test system: HOP-18

Compound | GI50 (RXF 631) | GI50 (XF498) | GI50 (SNB-78) | GI50 (DMS-114) | GI50 (HOP-18)
Cc1noc(/N=C2\C=C(Nc3onc(C)c3C)C(=O)c3ccccc32)c1C | > 100 µM (inactive) | > 100 µM (inactive) | > 100 µM (inactive) | 15.3 µM (inactive) | 85.9 µM (inactive)
COc1cc([C@@H]2c3cc4c(cc3[C@@H](NC(=O)c3ccc(C(C)=O)cc3)C3COC(=O)[C@@H]32)OCO4)cc(OC)c1O (stereo not given in full) | 1.24 µM (inactive) | 0.347 µM (active) | 8.99 µM (inactive) | 0.659 µM (active) | > 100 µM (inactive)
CC(=O)OCC1OC(n2cc([N+](=O)[O-])c(=O)[nH]c2=O)C(OC(C)=O)C(OC(C)=O)C1OC(C)=O (stereo not given) |  | > 100 µM (inactive) |  | > 100 µM (inactive) | 43.2 µM (inactive)
COc1ccc(OC(C(=O)O)C(C)C)c2c1CCCC2=O (stereo not given) | > 100 µM (inactive) | > 100 µM (inactive) | > 100 µM (inactive) | > 100 µM (inactive) | > 100 µM (inactive)
NC12CC3CC(C1)CC(Cl)(C3)C2 | > 100 µM (inactive) | > 100 µM (inactive) | > 100 µM (inactive) | > 100 µM (inactive) | 
COC(=O)c1nc(N)nc(C(=O)OC)c1C(=O)c1ccccc1 | > 100 µM (inactive) | > 100 µM (inactive) |  | > 100 µM (inactive) | > 100 µM (inactive)
CCOC(=O)NC1CC2CCC1(OC)C=C2C (stereo not given) |  | > 100 µM (inactive) | > 100 µM (inactive) | > 100 µM (inactive) | > 100 µM (inactive)
CC(C)=CCCC(C)[C@H]1CC(O)C2(C)C3=CCC4C(C)(C)[C@@H](O)CC[C@]4(C)C3=CC[C@]12C (stereo not given in full) | 4.34 µM (inactive) | 8.34 µM (inactive) | 7.13 µM (inactive) | 10 µM (inactive) | 13.7 µM (inactive)
CC(=O)N/C=C/c1cc(O)ccc1O |  | 18.1 µM (inactive) | > 47.8 µM (inactive) |  | 16.4 µM (inactive)
O=C(CCC(=O)C1CCC/C1=N/O)Nc1ccc(Cl)cc1 (stereo not given) | > 100 µM (inactive) | > 100 µM (inactive) | > 100 µM (inactive) |  | > 100 µM (inactive)
CC1=NOC(=O)C1/N=N/c1ccc(Br)c(C)c1 (stereo not given) |  | 17.6 µM (inactive) | 26.4 µM (inactive) | 15.6 µM (inactive) | 3.31 µM (inactive)
COc1ccc2c(c1)[n+]([O-])c(-c1c(Cl)cccc1Cl)c(N)[n+]2[O-] | 25.3 µM (inactive) | 24.6 µM (inactive) | 69.3 µM (inactive) | 34.4 µM (inactive) | 
O=C(CCN(C(=O)O)S(=O)(=O)c1ccc(NC(=O)c2ccccc2)cc1)NC1CCCCC1 |  | > 100 µM (inactive) | > 100 µM (inactive) | > 100 µM (inactive) | > 100 µM (inactive)
CN(/N=C/c1cccc2cccnc12)c1ccccc1 |  | > 100 µM (inactive) | > 100 µM (inactive) | > 100 µM (inactive) | > 100 µM (inactive)
CC1NC(=O)CC(c2ccccc2)N(N=O)C1c1ccccc1 (stereo not given) |  | 25.8 µM (inactive) | 35.4 µM (inactive) |  | 52.2 µM (inactive)
CC(C)C[C@H](NC(=O)[C@H](CC(C)C)NC(=O)[C@@H](Cc1c[nH]c2ccccc12)NC(=O)[C@H](Cc1ccccc1)NC(=O)[C@@H](Cc1c[nH]c2ccccc12)NC(=O)[C@H](CCC(N)=O)NC(=O)[C@H](CCC(N)=O)NC(=O)[C@H]1CCCN1C(=O)[C@@H](N)CCCCN)C(N)=O (H-K[dP]QQ[dW]F[dW]LL-NH2) |  | > 100 µM (inactive) | > 100 µM (inactive) |  | > 100 µM (inactive)
CN(C)CCNc1c2ccccc2c2c3c(cccc13)C(=O)N(CCN(C)C)C2=O |  | 0.267 µM (active) | 0.151 µM (active) |  | 0.188 µM (active)
C[N+](C)(C)C.FC(F)(F)C1(C(F)(F)F)O[SiH-]2(OC(C(F)(F)F)(C(F)(F)F)c3ccccc32)c2ccccc21 |  |  | 13.2 µM (inactive) | 14.1 µM (inactive) | 36.9 µM (inactive)
CN1Cc2c(nc(-c3ccccc3)c[n+]2[O-])N(C)C1 | > 100 µM (inactive) | > 100 µM (inactive) | > 100 µM (inactive) | > 100 µM (inactive) | > 100 µM (inactive)
